Each structure is given as a SMILES string. pIC50: −log10 of the molar value.

For test [1], the target named is T1, BACE1 (Homo sapiens, UniProt P56817).
T1 construct: Human HEK293 cells which are stably transfected with a vector expressing a cDNA of the human APP wt gene (APP695); endogenous in cells; host or cells: HEK293 stably expressing human APP695 wt
Briefly: Cellular Aβ-lowering assay (Aβ40 ELISA, HEK293 cells expressing human APP695). The test is classed as cell-based. Conditions: HEK293 cells stably expressing human APP695; Aβ40 in supernatant after 18-20 hrs; read-out: BACE1 cell act. Aβ40 IC50. Here is the method: Human HEK293 cells which are stably transfected with a vector expressing a cDNA of the human APP wt gene (APP695) were used to assess the potency of the compounds in a cellular assay. The cells were seeded in 96-well microtiter plates in cell culture medium (Iscove, plus 10% (v/v) fetal bovine serum, glutamine, penicillin/streptomycin) to about 80% confluence and the compounds were added at a 10× concentration in 1/10 volume of medium without FCS containing 8% DMSO (final concentration of DMSO was kept at 0.8% v/v). After 18-20 hrs incubation at 37° C. and 5% CO2 in a humidified incubator the culture supernatant was harvested for the determination of Aβ40 concentrations. 96 well ELISA plates (e.g., Nunc MaxiSorb) were coated with monoclonal antibody which specifically recognize the C-terminal end of Aβ40^10. After blocking of non-specific binding sites with e.g. 1% BSA and washing, the culture supernatants were added in suitable dilutions together with a horseradish peroxidase-coupled Aβ detection antibody (e.g., antibody 4G8, Senetek, Maryland Heights, Mo.) and incubated for 5 to 7 hrs. Subsequently the wells of the microtiter plate were washed extensively with Tris-buffered saline containing 0.05% Tween 20 and the assay was developed with tetramethylbenzidine/H2O2 in citric acid buffer. After stopping the reaction with one volume 1 N H2SO4 the reaction was measured in an ELISA reader at 450 nm wavelength. The concentrations of Aβ in the culture supernatants were calculated from a standard curve obtained with known amounts of pure Aβ peptide.

In test [2] the target is T2, recombinant human cathepsin E (Homo sapiens, UniProt P14091).
T2 construct: purchased R&D Systems
T2 sequence (P14091 54-396): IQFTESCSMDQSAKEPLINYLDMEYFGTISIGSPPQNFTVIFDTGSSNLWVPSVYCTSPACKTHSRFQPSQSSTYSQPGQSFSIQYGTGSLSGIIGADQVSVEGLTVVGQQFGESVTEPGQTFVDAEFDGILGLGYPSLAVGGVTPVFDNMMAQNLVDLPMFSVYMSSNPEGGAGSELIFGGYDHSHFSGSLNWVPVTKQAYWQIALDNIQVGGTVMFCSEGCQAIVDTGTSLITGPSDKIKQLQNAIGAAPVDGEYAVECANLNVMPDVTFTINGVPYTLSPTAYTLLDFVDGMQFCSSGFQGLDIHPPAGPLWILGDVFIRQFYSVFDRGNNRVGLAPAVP
The test is described as follows: Cathepsin E fluorescent substrate kinetic assay. The test is classed as biochemical. Conditions: pH 4.5. The text has this:
(§1) The MR121 fluorescence assays described below are based on the fact that MR121 forms a non-fluorescent ground state complex with tryptophan. In solution this formation occurs at millimolar concentrations of tryptophan. The mechanism can be used to design a generic biochemical assay for proteases. A substrate peptide is labeled at the N-terminus with tryptophan and at the C-terminus with the fluorophore MR121 (for cathepsin D the 10 amino acid peptide WTSVLMAAPC-MR121 was used; for cathepsin E, MR121-CKLVFFAEDW was used). In absence of protease activity, the substrates remain intact and the MR121 fluorescence is reduced by the high local Trp-concentration. If the substrates are cleaved by the enzymes the MR121 fluorescence is recovered.
(§2) The fluorescent substrate cathepsin D and cathepsin E kinetic assays were performed at room temperature in 384-well microtiter plates (black with clear flat bottom, non binding surface plates from Corning) in a final volume of 51 μl. The test compounds were serially diluted in DMSO (15 concentrations, 1/3 dilution steps) and 1 μl of diluted compounds were mixed for 10 min with 40 μl of cathepsin D (from human liver, Calbiochem) diluted in assay buffer (100 mM sodium acetate, 0.05% BSA, pH 5.5; final concentration: 200 nM) or with 40 μl of recombinant human cathepsin E (R&D Systems) diluted in assay buffer (100 mM sodium acetate, 0.05% BSA, pH 4.5; final concentration: 0.01 nM). After addition of 10 μl of the cathepsin D substrate WTSVLMAAPC-MR121 diluted in cathepsin D assay buffer (final concentration: 300 nM) or […] cathepsin E substrate MR121-CKLVFFAEDW diluted in cathepsin E assay buffer (final concentration: 300 nM), the plates were strongly shaken for 2 minutes. The enzymatic reaction was followed in a plate: vision reader (Perkin Elmer) (excitation wavelength: 630 nm; emission: 695 nm) for at least 30 minutes in a kinetic measurement detecting an increase of MR121 fluorescence during the reaction time. The slope in the linear range of the kinetic was calculated and the IC50 of the test compounds were determined using a four parameter equation for curve fitting.

The target in test [3] is T3, cathepsin D (from human liver) (Homo sapiens, UniProt P07339).
T3 construct: cathepsin D (from human liver, Calbiochem); purchased Calbiochem; host or cells: human liver (tissue-purified)
T3 sequence (P07339 65-162 limits assumed): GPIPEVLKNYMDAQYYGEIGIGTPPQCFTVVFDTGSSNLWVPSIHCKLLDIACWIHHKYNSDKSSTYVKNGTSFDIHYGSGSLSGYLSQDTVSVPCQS
T3 sequence (P07339 169-412 limits assumed): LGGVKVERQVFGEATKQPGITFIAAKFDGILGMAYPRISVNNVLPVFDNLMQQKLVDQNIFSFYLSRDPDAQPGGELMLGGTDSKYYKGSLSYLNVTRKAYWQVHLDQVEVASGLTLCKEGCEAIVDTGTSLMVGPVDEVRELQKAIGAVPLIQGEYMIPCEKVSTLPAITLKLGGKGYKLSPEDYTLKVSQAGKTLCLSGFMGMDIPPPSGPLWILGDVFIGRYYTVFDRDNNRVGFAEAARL
The test is described as follows: Cathepsin D fluorescent substrate kinetic assay. The test is classed as biochemical. Conditions: pH 5.5.
Source text: as §1, §2

Test [4] addresses T4, CYP3A4 (Homo sapiens, UniProt P08684).
T4 construct: 0.2 mg/ml pooled human liver microsomes; from tissue; host or cells: pooled human liver microsomes
Briefly: CYP inhibition assay, human liver microsomes, midazolam. Particulars: read-out: CYP IC50 3A4. Type of test: in vitro ADME. Here is the method: (§3) Inhibition of cytochromes P450 (CYPs) 2C9, 2D6 and 3A4 was assessed using human liver microsomes and CYP-selective substrate metabolism reactions. 50 μl incubations were made up containing (finally) 0.2 mg/ml pooled human liver microsomes, 5 μM substrate (diclofenac for CYP2C9 [4′hydroxylase], dextromethorphan for CYP2D6 [O-demethylase] or midazolam for CYP3A4 [1′hydroxylase]), 0.25 μL DMSO containing test inhibitor and NADPH regenerating system. Test inhibitor concentrations of 50, 16.7, 5.6, 1.9, 0.6 and 0.2 μM were assessed in singlicate. Incubations were prewarmed to 37° C. for 10 minutes before initiation by addition of NADPH regenerating system. Incubations were quenched after 5 minutes (20 minutes for dextromethorphan) by addition of 50 μl cold acetonitrile containing 20 ng/ml 4-OH-diclofenac-13C6, 20 ng/mL dextrorphan-D3 and 20 ng/mL 1-OH-midazolam-D4. Quenched incubates were stored at −20° C. for at least 1 hour before centrifugation (20,000×g, 20 minutes). Supernatants were removed and diluted 1:1 with water prior to analysis using a RapidFire sample injector system and API4000 mass spectrometer. Peak areas for substrate, metabolite and stable-labelled metabolite standard were determined using MS/MS. The peak area ratios between the metabolite generated by the enzymatic reaction and the internal standard were used in subsequent calculations. The percentage of (DMSO) control activity was calculated for each incubate and IC50 values estimated by non-linear regression. Sulfaphenazole, quinidine or ketoconazole were tested in each CYP2C9, CYP2D6 or CYP3A4 inhibition experiment, respectively, to ensure assay sensitivity and reproducibility. (Validated assays for human cytochrome P450 activities^11)

Test [5] concerns the target T5, CYP2C9 (Homo sapiens, UniProt P11712).
T5 construct: 0.2 mg/ml pooled human liver microsomes; from tissue; host or cells: pooled human liver microsomes
Briefly: CYP inhibition assay, human liver microsomes, diclofenac. Conditions: read-out: CYP IC50 2C9. Type of test: in vitro ADME. Here is the method: as §3

T1 sequence (P56817 46-501): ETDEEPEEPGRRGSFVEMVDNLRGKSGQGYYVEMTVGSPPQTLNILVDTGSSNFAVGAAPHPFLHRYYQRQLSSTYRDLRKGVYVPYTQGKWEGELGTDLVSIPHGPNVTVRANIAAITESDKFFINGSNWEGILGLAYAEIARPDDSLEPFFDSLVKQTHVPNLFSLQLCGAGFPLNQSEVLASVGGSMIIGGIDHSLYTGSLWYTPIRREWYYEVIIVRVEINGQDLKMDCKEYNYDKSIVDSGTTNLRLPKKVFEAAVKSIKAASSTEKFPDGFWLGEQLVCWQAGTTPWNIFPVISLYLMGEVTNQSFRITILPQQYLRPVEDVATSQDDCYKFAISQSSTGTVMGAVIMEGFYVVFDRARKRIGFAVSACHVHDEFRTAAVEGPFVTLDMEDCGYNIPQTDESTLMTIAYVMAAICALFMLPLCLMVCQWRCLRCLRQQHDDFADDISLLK
T5 sequence (P11712 whole entry): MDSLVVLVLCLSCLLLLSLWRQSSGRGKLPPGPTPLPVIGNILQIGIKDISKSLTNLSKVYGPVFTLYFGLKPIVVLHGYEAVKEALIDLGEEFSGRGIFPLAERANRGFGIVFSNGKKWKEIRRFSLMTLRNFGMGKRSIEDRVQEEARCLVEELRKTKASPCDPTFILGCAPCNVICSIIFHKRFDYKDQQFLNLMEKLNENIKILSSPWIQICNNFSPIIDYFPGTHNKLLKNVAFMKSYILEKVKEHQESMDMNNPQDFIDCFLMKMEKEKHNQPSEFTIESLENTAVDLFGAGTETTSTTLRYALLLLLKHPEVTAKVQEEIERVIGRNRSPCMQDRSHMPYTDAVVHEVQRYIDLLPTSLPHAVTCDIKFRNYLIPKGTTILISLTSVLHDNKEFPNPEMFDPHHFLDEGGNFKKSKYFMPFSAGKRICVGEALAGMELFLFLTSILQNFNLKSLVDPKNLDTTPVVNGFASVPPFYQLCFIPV
T4 sequence (P08684 whole entry): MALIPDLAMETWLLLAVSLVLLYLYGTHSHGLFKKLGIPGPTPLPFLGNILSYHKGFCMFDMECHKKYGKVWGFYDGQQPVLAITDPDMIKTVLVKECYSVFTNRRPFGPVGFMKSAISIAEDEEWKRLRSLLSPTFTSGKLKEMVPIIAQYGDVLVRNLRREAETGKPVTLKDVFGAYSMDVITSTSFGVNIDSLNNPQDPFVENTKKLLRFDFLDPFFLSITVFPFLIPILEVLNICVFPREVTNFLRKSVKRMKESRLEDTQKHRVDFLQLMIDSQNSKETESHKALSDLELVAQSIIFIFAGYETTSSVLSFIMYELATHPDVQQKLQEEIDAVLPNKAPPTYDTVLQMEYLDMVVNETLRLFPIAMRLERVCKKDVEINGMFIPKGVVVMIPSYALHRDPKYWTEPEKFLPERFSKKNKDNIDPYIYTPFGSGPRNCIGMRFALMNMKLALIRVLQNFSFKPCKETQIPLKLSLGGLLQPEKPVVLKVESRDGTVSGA

For `CC#CCOc1cnc(C(=O)Nc2ccc(F)c([C@@]3(C)N=C(N)O[C@@H]4CCC(F)(F)[C@@H]43)c2)cn1` [Example 1, 5-But-2-ynyloxy-pyrazine-2-carboxylic acid [3-((4S,4aR,7aR)-2-amino-5,5-difluoro-4-methyl-4,4a,5,6,7,7a-hexahydro-cyclopenta[e][1,3]oxazin-4-yl)-4-fluoro-phenyl]-amide], the pIC50 in test [1] was 9.40; in test [2] it was 4.01; in test [3], 3.87; in test [4] it was under 5.00; in test [5] it was under 5.00.
Regarding `C[C@]1(c2cc(NC(=O)c3ccc(C#N)cn3)ccc2F)N=C(N)O[C@@H]2CCC(F)(F)[C@@H]21` [Example 2, 5-Cyano-pyridine-2-carboxylic acid [3-((4S,4aR,7aR)-2-amino-5,5-difluoro-4-methyl-4,4a,5,6,7,7a-hexahydro-cyclopenta[e][1,3]oxazin-4-yl)-4-fluoro-phenyl]-amide], the pIC50 in test [1] is 8.82; in test [2], 4.05; in test [3], under 3.70; in test [4], under 5.00; in test [5], under 5.00.
Consider `C[C@]1(c2cc(NC(=O)c3ccc(C#N)cn3)ccc2F)N=C(N)O[C@@H]2CCCC(F)(F)[C@@H]21` [Example 8, 5-Cyano-pyridine-2-carboxylic acid [3-((4S,4aR,8aR)-2-amino-5,5-difluoro-4-methyl-4a,5,6,7,8,8a-hexahydro-4H-benzo[e][1,3]oxazin-4-yl)-4-fluoro-phenyl]-amide], for which the pIC50 in test [1] was 8.66; in test [2] it was under 3.70; in test [3] it was under 3.70; in test [4] it was under 5.00; in test [5] it was under 5.00.

The values are drawn from patent US9181232B2, “Difluoro-hexahydro-cyclopentaoxazinyls and difluoro-hexahydro-benzooxazinyls as BACE1 inhibitors” (Hoffmann-La Roche Inc., priority 2012, dated 2015).
